Reference: patent publication USRE44971E1, “Method for selection of transformed cells” (priority 2006, dated 2014)

Assays:
[1] = tested on: non-transgenic soybean plants; assay: Greenhouse post-V3 spray of auxin-like herbicides, visual injury, non-transgenic line; assay type: in vivo
Procedure: (§1) An analysis was carried out to determine whether soybean plants having DMO-encoding polynucleotide could deactivate other auxin-like herbicides in addition to dicamba. This was carried out by applying various concentrations of commercially available formulations of other auxin-like herbicides such as 2,4-D (Helena, Collierville, Tenn.), MCPA (Agriliance, St. Paul, Minn.), triclopyr (GARLON 3A; Dow Elanco, Indianapolis, Ind.), clopyralid (STINGER; Dow Elanco, Indianapolis, Ind.), picloram (TORDON 22K; Dow Elanco, Indianapolis, Ind.), or Banvel or Clarity (BASF, Raleigh, N.C.) to DMO containing plant tissues or plants.
(§2) Transgenic soybean plants were obtained by Agrobacterium-mediated transformation of soybean explants with a DMO-encoding polynucleotide as described above for the events designated Events 1-4. A non-transgenic line was used as a control. Non-transgenic and transgenic soybean seeds were planted into 3,5-inch square plastic pots containing Redi-earth™ (Scotts-Sierra Horticultural Products Co., Marysville, Ohio). The pots were placed on capillary matting in 35 inch×60 inch fiberglass watering trays for overhead and/or sub-irrigation for the duration of the test period so as to maintain optimum soil moisture for plant growth. The pots were fertilized with Osmocote (14-14-14 slow release; Scotts-Sierra Horticultural Products Co., Marysville, Ohio) at the rate of 100 gm/cu.ft. to sustain plant growth for the duration of greenhouse trials. The plants were grown in greenhouses at 27°/21° C. day/night temperature, with relative humidity between 25%-75% to simulate warm season growing conditions of late spring. A 14 h minimum photoperiod was provided with supplemental light at about 600 μE as needed.
(§3) All herbicide applications were made with the track sprayer using a Teejet 9501E flat fan nozzle (Spraying Systems Co, Wheaton, Ill.) with air pressure set at a minimum of 24 psi (165 kpa). The spray nozzle was kept at a height of about 16 inches above the top of plant material for spraying. The spray volume was 10 gallons per acre or 93 liters per hectare. Applications were made when plants had reached V-3 stage.
(§4) All treated plants in greenhouse trials were visually assessed at about 4, 14, 18, and 21 days after treatment (DAT) for injury on a scale of 0 to 100 percent relative to untreated control plants, with zero representing “no” injury and 100% representing “complete” injury or death. Data were collected using a palm top computer and analyzed using standard statistical methods.

[2] = tested on: transgenic soybean plants with DMO-encoding polynucleotide, Event 1; assay: Greenhouse post-V3 spray of auxin-like herbicides, visual injury, transgenic Event 1; assay type: in vivo
Procedure: as §1, §2, §3, §4

[3] = tested on: transgenic soybean plants with DMO-encoding polynucleotide, Event 2; assay: Greenhouse post-V3 spray of auxin-like herbicides, visual injury, transgenic Event 2; assay type: in vivo
Procedure: as §1, §2, §3, §4

[4] = tested on: transgenic soybean plants with DMO-encoding polynucleotide, Event 3; assay: Greenhouse post-V3 spray of auxin-like herbicides, visual injury, transgenic Event 3; assay type: in vivo
Procedure: as §1, §2, §3, §4

[5] = tested on: transgenic soybean plants with DMO-encoding polynucleotide, Event 4; assay: Greenhouse post-V3 spray of auxin-like herbicides, visual injury, transgenic Event 4; assay type: in vivo
Procedure: as §1, §2, §3, §4

[6] = tested on: soybean explants inoculated with Agrobacterium harboring pMON73691 (DMO and GFP genes); assay: Selection of pMON73691-inoculated soybean explants with 2,4-D or dicamba in liquid medium, GFP+ buds; assay type: cell-based; conditions: for # Explants w/GFP + buds/young shoots at 48DAI: 375 explants inoculated, pMON73691
Procedure: Freshly isolated soybean explants (mature embryo axes without cotyledons) were inoculated with Agrobacterium strain ABI harboring pMON73691 (containing DMO and GFP genes). After 3-d co-culture with Agrobacterium at 23° C. and a photoperiod of 16-h light and 8-h dark, the explants were cultured in liquid delay medium which contained modified woody plant medium supplemented with 5 mg/l BAP, 200 mg/l carbenicillin, 200 mg/l cefotaxime and 100 mg/l ticarcillin. The explants were in the delay medium for 4 days. They were then transferred to liquid selection medium in PLANTCONs. The selection medium was the same as the delay medium except of addition of various levels of 2,4-D (0.01, 0.1, 1.0 or 2.0 mg/L) or 0.01 mg/L dicamba as shown in Table 9 below. Each PLANTCON contained 60 ml of the selection medium and one piece of foam sponge with 5 slits. Twenty-five explants were evenly inserted into the slits. The cultures were maintained at 28° C. and a photoperiod of 16-h light and 8-h dark, and were examined periodically under a […] equipped for detecting GFP expressing tissues.

[7] = tested on: transgenic soybean plants having DMO-encoding polynucleotide; assay: Greenhouse injury trial, overall statements for transgenic soybean; assay type: in vivo; conditions: for tolerance of transgenic soybean relative to the non-transgenic line: greenhouse trial, post-V3 application; for assessment of application rate: 280 g ae/ha, transgenic soybean
Procedure: as §1, §2, §3, §4

| Compound | % injury relative to un-treated controls ([1]; 280 g ae/ha, 21 DAT) | % injury relative to un-treated controls ([1]; 561 g ae/ha, 21 DAT) | % injury relative to un-treated controls ([1]; 1120 g ae/ha, 21 DAT) | % injury relative to un-treated controls ([2]; 280 g ae/ha, 21 DAT) | % injury relative to un-treated controls ([1]; 280 g ae/ha, 14 DAT) | % injury relative to un-treated controls ([1]; 561 g ae/ha, 14 DAT) | % injury relative to un-treated controls ([1]; 1120 g ae/ha, 14 DAT) | % injury relative to un-treated controls ([2]; 280 g ae/ha, 14 DAT) | % injury relative to un-treated controls ([2]; 561 g ae/ha, 14 DAT) | % injury relative to un-treated controls ([2]; 1120 g ae/ha, 14 DAT) | % injury relative to un-treated controls ([3]; 280 g ae/ha, 14 DAT) | % injury relative to un-treated controls ([3]; 561 g ae/ha, 14 DAT) | % injury relative to un-treated controls ([3]; 1120 g ae/ha, 14 DAT) | % injury relative to un-treated controls ([4]; 280 g ae/ha, 14 DAT) | % injury relative to un-treated controls ([4]; 561 g ae/ha, 14 DAT) | % injury relative to un-treated controls ([4]; 1120 g ae/ha, 14 DAT) | % injury relative to un-treated controls ([5]; 280 g ae/ha, 14 DAT) | % injury relative to un-treated controls ([5]; 561 g ae/ha, 14 DAT) | % injury relative to un-treated controls ([5]; 1120 g ae/ha, 14 DAT) | assessment of application rate [7] | other results |
| --- | --- | --- | --- | --- | --- | --- | --- | --- | --- | --- | --- | --- | --- | --- | --- | --- | --- | --- | --- | --- | --- |
| O=C(O)COc1ccc(Cl)cc1Cl [2,4-D, (2,4-dichlorophenoxy)acetic acid] | 86.8% | 100.0% | 100.0% | 58.3% | – | – | – | – | – | – | – | – | – | – | – | – | – | – | – | – | % injury relative to un-treated controls ([2]; 561 g ae/ha, 21 DAT): 75.0%; % injury relative to un-treated controls ([2]; 1120 g ae/ha, 21 DAT): 100.0%; % injury relative to un-treated controls ([3]; 280 g ae/ha, 21 DAT): 64.2%; % injury relative to un-treated controls ([3]; 561 g ae/ha, 21 DAT): 94.7%; % injury relative to un-treated controls ([3]; 1120 g ae/ha, 21 DAT): 100.0%; % injury relative to un-treated controls ([4]; 280 g ae/ha, 21 DAT): 40.0%; % injury relative to un-treated controls ([4]; 561 g ae/ha, 21 DAT): 85.0%; % injury relative to un-treated controls ([4]; 1120 g ae/ha, 21 DAT): 100.0%; % injury relative to un-treated controls ([5]; 280 g ae/ha, 21 DAT): 45.8%; % injury relative to un-treated controls ([5]; 561 g ae/ha, 21 DAT): 84.2%; % injury relative to un-treated controls ([5]; 1120 g ae/ha, 21 DAT): 100.0%; explant response observed ([6]; 0.01 or 0.1 mg/L in selection medium): extensive shoot growth; explant response observed ([6]; 1 or 2 mg/L in selection medium): Extensive callus development; # Explants w/GFP + buds/young shoots at 48DAI ([6]; selective agent 0.01 mg/L): 33; # Explants w/GFP + buds/young shoots at 48DAI ([6]; selective agent 0.1 mg/L): 19; # Explants w/GFP + buds/young shoots at 48DAI ([6]; selective agent 1 mg/L): 4; # Explants w/GFP + buds/young shoots at 48DAI ([6]; selective agent 2 mg/L): 0; tolerance of transgenic soybean relative to the non-transgenic line [7]: tolerance |
| O=C(O)c1nc(Cl)ccc1Cl [Clopyralid, 3,6-dichloro-2-pyridinecarboxylic acid] | – | – | – | – | 99.3% | 100.0% | 100.0% | 99.2% | 100.0% | 100.0% | 98.2% | 99.7% | 100.0% | 99.3% | 100.0% | 100.0% | 99.7% | 100.0% | 100.0% | too stringent | – |
| Cc1cc(Cl)ccc1OCC(=O)O [MCPA, (4-chloro-2-methylphenoxy)acetic acid] | 93.0% | 98.3% | 100.0% | 72.5% | – | – | – | – | – | – | – | – | – | – | – | – | – | – | – | – | % injury relative to un-treated controls ([2]; 561 g ae/ha, 21 DAT): 99.3%; % injury relative to un-treated controls ([2]; 1120 g ae/ha, 21 DAT): 100.0%; % injury relative to un-treated controls ([3]; 280 g ae/ha, 21 DAT): 55.0%; % injury relative to un-treated controls ([3]; 561 g ae/ha, 21 DAT): 95.0%; % injury relative to un-treated controls ([3]; 1120 g ae/ha, 21 DAT): 99.7%; % injury relative to un-treated controls ([4]; 280 g ae/ha, 21 DAT): 55.0%; % injury relative to un-treated controls ([4]; 561 g ae/ha, 21 DAT): 95.8%; % injury relative to un-treated controls ([4]; 1120 g ae/ha, 21 DAT): 100.0%; % injury relative to un-treated controls ([5]; 280 g ae/ha, 21 DAT): 88.3%; % injury relative to un-treated controls ([5]; 561 g ae/ha, 21 DAT): 98.8%; % injury relative to un-treated controls ([5]; 1120 g ae/ha, 21 DAT): 100.0%; tolerance of transgenic soybean relative to the non-transgenic line [7]: tolerance |
| Nc1c(Cl)c(Cl)nc(C(=O)O)c1Cl [Picloram, 4-amino-3,5,6-trichloro-2-pyridinecarboxylic acid] | – | – | – | – | 99.3% | 100.0% | 100.0% | 99.7% | 100.0% | 100.0% | 99.3% | 100.0% | 100.0% | 99.3% | 99.7% | 100.0% | 99.3% | 100.0% | 100.0% | too stringent | – |
| (2,4,5-trichlorophenoxy)acetic acid [Triclopyr] | – | – | – | – | 86.7% | 97.3% | 98.7% | 88.3% | 95.7% | 99.3% | 86.7% | 98.7% | 99.3% | 86.7% | 94.0% | 96.3% | 90.8% | 98.0% | 99.2% | too stringent | – |
